For 15 molecules, IC50 and Ki results are on record in ChEMBL document CHEMBL1909046, “DrugMatrix in vitro pharmacology data”.

Molecules are shown by their SMILES.

The target of data set [1] is T1, Neuropeptide Y receptor type 1 (Homo sapiens, UniProt P25929).
T1 sequence (P25929 whole entry): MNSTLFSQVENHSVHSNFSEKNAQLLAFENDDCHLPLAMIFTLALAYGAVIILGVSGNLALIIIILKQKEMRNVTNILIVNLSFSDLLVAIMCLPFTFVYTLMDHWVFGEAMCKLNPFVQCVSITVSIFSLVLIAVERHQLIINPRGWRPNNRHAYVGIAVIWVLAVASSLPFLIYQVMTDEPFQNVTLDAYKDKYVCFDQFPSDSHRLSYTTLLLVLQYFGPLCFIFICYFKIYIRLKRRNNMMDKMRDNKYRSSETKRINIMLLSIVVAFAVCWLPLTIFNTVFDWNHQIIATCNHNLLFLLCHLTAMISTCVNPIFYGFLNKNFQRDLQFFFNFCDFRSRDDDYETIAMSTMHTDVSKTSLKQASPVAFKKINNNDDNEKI
The class given is cell membranes, Membrane. The following applies: sk-n-mc.

Data set [2] deals with T2, Nitric oxide synthase, inducible (Mus musculus, UniProt P29477).
T2 sequence (P29477 whole entry): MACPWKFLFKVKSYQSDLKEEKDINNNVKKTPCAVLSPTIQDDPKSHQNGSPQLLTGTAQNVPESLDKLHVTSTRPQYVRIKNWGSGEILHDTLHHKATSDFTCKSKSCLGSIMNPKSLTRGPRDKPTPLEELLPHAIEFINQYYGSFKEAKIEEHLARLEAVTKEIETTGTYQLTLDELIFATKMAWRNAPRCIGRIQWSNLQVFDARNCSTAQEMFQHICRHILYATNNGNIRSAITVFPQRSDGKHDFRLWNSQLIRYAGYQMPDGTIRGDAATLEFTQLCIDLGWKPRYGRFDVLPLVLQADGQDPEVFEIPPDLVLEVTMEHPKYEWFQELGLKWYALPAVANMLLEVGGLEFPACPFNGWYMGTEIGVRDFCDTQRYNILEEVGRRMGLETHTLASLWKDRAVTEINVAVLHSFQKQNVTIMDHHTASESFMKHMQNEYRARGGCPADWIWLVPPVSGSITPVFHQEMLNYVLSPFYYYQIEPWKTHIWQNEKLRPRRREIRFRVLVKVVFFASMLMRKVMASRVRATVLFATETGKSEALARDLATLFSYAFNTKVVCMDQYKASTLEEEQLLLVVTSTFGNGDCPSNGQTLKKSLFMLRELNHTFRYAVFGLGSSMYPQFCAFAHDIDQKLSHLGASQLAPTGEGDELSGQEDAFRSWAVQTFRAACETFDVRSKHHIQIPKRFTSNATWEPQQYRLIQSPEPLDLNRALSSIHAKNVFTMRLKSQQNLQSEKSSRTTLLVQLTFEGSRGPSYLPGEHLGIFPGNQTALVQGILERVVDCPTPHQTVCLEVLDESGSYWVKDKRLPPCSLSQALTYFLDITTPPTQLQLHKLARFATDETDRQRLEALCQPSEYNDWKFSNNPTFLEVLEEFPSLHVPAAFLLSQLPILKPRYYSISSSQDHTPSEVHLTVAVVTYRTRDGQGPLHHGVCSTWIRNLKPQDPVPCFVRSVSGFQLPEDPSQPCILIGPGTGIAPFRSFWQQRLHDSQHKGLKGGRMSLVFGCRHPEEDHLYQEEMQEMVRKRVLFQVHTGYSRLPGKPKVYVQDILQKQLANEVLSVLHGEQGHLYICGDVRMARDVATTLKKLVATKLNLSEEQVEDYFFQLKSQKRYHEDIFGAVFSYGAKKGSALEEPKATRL
On the set-up: species or system Escherichia coli.

The next data set concerns the target Estrogen receptor beta (Homo sapiens, UniProt Q92731). As to conditions: sf9.
Data set [3] has as its target T3, Muscarinic acetylcholine receptor M4 (Homo sapiens, UniProt P08173).
T3 sequence (P08173 whole entry): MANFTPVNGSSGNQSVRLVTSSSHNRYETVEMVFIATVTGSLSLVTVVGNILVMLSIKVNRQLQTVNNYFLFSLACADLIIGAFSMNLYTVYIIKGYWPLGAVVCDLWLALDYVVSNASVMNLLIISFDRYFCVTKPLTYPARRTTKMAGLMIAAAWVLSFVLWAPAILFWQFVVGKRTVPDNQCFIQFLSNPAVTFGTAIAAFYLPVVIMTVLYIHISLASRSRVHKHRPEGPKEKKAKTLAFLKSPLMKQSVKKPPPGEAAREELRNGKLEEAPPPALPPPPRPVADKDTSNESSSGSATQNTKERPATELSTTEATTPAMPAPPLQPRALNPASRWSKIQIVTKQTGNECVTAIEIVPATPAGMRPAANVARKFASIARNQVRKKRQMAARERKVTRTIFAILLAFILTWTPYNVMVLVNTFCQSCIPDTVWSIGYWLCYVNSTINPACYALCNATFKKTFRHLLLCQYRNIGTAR
The class given is cell membranes, CHO-K1, Membrane.

The target of the next data set is T4, Cytochrome P450 1A2 (Homo sapiens, UniProt P05177).
T4 sequence (P05177 whole entry): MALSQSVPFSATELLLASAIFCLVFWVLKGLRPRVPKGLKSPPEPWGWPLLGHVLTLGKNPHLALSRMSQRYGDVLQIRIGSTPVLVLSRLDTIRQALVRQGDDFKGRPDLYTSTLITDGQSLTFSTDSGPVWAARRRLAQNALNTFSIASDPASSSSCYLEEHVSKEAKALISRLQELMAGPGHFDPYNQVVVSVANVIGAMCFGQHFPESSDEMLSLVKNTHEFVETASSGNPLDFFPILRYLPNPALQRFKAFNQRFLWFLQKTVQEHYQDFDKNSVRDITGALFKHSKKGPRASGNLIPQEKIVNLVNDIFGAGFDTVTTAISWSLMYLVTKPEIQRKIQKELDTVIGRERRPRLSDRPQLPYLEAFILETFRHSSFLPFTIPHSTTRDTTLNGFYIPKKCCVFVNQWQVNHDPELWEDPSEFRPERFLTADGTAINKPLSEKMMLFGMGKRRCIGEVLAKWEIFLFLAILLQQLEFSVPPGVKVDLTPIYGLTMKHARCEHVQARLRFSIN
The following applies: bti-tn-5b1-4.

The next data set deals with Cytochrome P450 3A4 (Homo sapiens, UniProt P08684). The following applies: bti-tn-5b1-4.
Chain of Cytochrome P450 3A4 (P08684 whole entry): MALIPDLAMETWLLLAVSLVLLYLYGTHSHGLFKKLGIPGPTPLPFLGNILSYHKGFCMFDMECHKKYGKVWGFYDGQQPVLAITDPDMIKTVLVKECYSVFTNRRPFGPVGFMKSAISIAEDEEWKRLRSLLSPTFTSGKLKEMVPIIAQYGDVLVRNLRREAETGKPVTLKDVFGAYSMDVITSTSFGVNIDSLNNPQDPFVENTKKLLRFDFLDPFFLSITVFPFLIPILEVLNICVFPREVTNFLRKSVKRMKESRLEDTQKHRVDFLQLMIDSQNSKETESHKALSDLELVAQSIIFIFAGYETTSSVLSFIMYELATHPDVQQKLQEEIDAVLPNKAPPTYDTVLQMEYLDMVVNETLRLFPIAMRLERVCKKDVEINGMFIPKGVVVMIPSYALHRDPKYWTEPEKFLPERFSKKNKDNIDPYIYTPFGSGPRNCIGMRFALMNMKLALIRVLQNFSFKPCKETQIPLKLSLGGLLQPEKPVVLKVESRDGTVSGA
Note: in other assays of this panel Not Active means under 50% inhibition at 10 µM.

Chain of Estrogen receptor beta (Q92731 whole entry): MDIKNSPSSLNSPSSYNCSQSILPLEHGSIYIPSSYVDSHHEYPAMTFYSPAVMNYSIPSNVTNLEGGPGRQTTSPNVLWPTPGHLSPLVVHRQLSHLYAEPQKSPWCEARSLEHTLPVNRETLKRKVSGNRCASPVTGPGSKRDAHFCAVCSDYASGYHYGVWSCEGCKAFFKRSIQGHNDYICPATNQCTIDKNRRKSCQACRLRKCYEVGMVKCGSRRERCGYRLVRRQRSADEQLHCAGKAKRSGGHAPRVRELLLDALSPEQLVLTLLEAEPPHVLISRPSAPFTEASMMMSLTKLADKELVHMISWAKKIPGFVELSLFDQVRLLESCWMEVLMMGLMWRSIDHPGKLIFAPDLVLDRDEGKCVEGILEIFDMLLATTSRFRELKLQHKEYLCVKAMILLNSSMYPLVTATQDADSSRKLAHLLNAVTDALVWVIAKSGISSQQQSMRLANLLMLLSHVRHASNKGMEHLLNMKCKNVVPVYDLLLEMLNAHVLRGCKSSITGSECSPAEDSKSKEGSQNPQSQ

The IC50 is the midpoint of a concentration-inhibition curve. Broadly, the Ki is a dissociation constant, usually derived from enzyme kinetics or from competition with a known ligand. On to `O=C(O)CCNC(=O)c1ccc(/N=N/c2ccc(O)c(C(=O)O)c2)cc1` [BALSALAZIDE], for which the 50% inhibitory concentration (IC50) result (in data set [1]; in data set [2]; against Estrogen receptor beta; in data set [3] (cho-k1); against Cytochrome P450 1A2; against Cytochrome P450 3A4) was “Not Active” in each case. The Ki result at Cytochrome P450 1A2 and at Cytochrome P450 3A4 was “Not Active” in each case.

As to `ClC(Cl)(Cl)Cl` [CARBON TETRACHLORIDE], the IC50 result (in data set [1]; in data set [2]; against Estrogen receptor beta; in data set [3] (cho-k1); at Cytochrome P450 1A2; against Cytochrome P450 3A4) was “Not Active” throughout. Also, the Ki result at Cytochrome P450 1A2 and on Cytochrome P450 3A4 was “Not Active” in each case.

For the molecule `CO/N=C(\C(=O)N[C@@H]1C(=O)N2C(C(=O)O)=C(COC(C)=O)CS[C@H]12)c1csc(N)n1` [CEFOTAXIME], the IC50 result (in data set [1]; in data set [2]; against Estrogen receptor beta; in data set [3] (cho-k1); against Cytochrome P450 1A2; against Cytochrome P450 3A4) was “Not Active” each time. Also, the Ki entry at Cytochrome P450 1A2 and on Cytochrome P450 3A4 was “Not Active” each time.

As to `CNC1=Nc2ccc(Cl)cc2C(c2ccccc2)=[N+]([O-])C1` [CHLORDIAZEPOXIDE], the IC50 result (in data set [1]; in data set [2]; at Estrogen receptor beta; in data set [3] (cho-k1); on Cytochrome P450 1A2; on Cytochrome P450 3A4) was “Not Active” in each case. The Ki result on Cytochrome P450 1A2 and on Cytochrome P450 3A4 was “Not Active” each time.

Consider `Cc1cc(O)cc(C)c1Cl` [CHLOROXYLENOL], for which the IC50 result (in data set [1]; in data set [2]; at Estrogen receptor beta; in data set [3] (cho-k1); on Cytochrome P450 1A2; on Cytochrome P450 3A4) was “Not Active” throughout. In addition, the Ki result at Cytochrome P450 1A2 and at Cytochrome P450 3A4 was “Not Active” in each case.

Turning to `CCCNC(=O)NS(=O)(=O)c1ccc(Cl)cc1` [CHLORPROPAMIDE], the IC50 entry (in data set [1]; in data set [2]; on Estrogen receptor beta; in data set [3] (cho-k1); at Cytochrome P450 1A2; at Cytochrome P450 3A4) was “Not Active” each time. Further, the Ki result on Cytochrome P450 1A2 and at Cytochrome P450 3A4 was “Not Active” throughout.

Regarding `NS(=O)(=O)c1cc(C2(O)NC(=O)c3ccccc32)ccc1Cl` (stereo unspecified) [CHLORTHALIDONE], the IC50 entry (in data set [1]; in data set [2]; against Estrogen receptor beta; in data set [3] (cho-k1); on Cytochrome P450 1A2; against Cytochrome P450 3A4) was “Not Active” each time. In addition, the Ki result on Cytochrome P450 1A2 and on Cytochrome P450 3A4 was “Not Active” throughout.

Turning to `O=C(O)CC(O)(CC(=O)O)C(=O)O` [CITRIC ACID], the IC50 entry (in data set [1]; in data set [2]; on Estrogen receptor beta; in data set [3] (cho-k1); against Cytochrome P450 1A2; against Cytochrome P450 3A4) was “Not Active” each time. The Ki result at Cytochrome P450 1A2 and on Cytochrome P450 3A4 was “Not Active” each time.

`CN1CCN(C(c2ccccc2)c2ccccc2)CC1` [CYCLIZINE]: the half-maximal inhibitory concentration (IC50) result in data set [1] was “Not Active”; in data set [2], “Not Active”; against Estrogen receptor beta it was “Not Active”; in data set [3] (read-out: IC50), 852 nM; at Cytochrome P450 1A2, “Not Active”; against Cytochrome P450 3A4 it was “Not Active”. Moreover, the values for the Ki (in data set [3] (read-out: Ki); at Cytochrome P450 1A2; on Cytochrome P450 3A4) were 119 nM, “Not Active” and “Not Active”, respectively.

As for `CN1C[C@@H]2C[C@H]1CN2c1cc2c(cc1F)c(=O)c(C(=O)O)cn2C1CC1` [DANOFLOXACIN], the IC50 result (in data set [1]; in data set [2]; at Estrogen receptor beta; in data set [3] (cho-k1); at Cytochrome P450 1A2; against Cytochrome P450 3A4) was “Not Active” in each case. Besides, the Ki entry on Cytochrome P450 1A2 and on Cytochrome P450 3A4 was “Not Active” each time.

With `COc1cccc2c1C(=O)c1c(O)c3c(c(O)c1C2=O)C[C@@](O)(C(C)=O)C[C@@H]3O[C@H]1C[C@H](N)[C@H](O)[C@H](C)O1` [DAUNORUBICIN], the IC50 entry (in data set [1]; in data set [2]; at Estrogen receptor beta; in data set [3] (cho-k1); against Cytochrome P450 1A2; at Cytochrome P450 3A4) was “Not Active” throughout. The Ki result on Cytochrome P450 1A2 and at Cytochrome P450 3A4 was “Not Active” throughout.

Regarding `O=C(O)c1cc(-c2ccc(F)cc2F)ccc1O` [DIFLUNISAL], the Ki entry (in data set [1]; on Cytochrome P450 1A2; at Cytochrome P450 3A4) was “Not Active” throughout. The IC50 entry (in data set [2]; on Estrogen receptor beta; in data set [3] (cho-k1); on Cytochrome P450 1A2; against Cytochrome P450 3A4) was “Not Active” throughout.

Take `CC1=NN(c2ccccc2)C(=O)C1` [EDARAVONE]: the IC50 result (in data set [1]; in data set [2]; on Estrogen receptor beta; in data set [3] (cho-k1); on Cytochrome P450 1A2; on Cytochrome P450 3A4) was “Not Active” throughout. Moreover, the Ki result at Cytochrome P450 1A2 and at Cytochrome P450 3A4 was “Not Active” in each case.

As for `C[C@]12CC[C@@H]3c4ccc(O)cc4CC[C@H]3[C@@H]1C[C@@H](O)[C@@H]2O` [ESTRIOL], the IC50 result (in data set [1]; in data set [2]; against Estrogen receptor beta; in data set [3] (cho-k1); at Cytochrome P450 1A2; against Cytochrome P450 3A4) was “Not Active” in each case. The Ki entry on Cytochrome P450 1A2 and at Cytochrome P450 3A4 was “Not Active” throughout.

On to `CN1CCN(c2c(F)cc3c(=O)c(C(=O)O)cn(CCF)c3c2F)CC1` [FLEROXACIN], for which the IC50 entry (in data set [1]; in data set [2]; on Estrogen receptor beta; in data set [3] (cho-k1); at Cytochrome P450 1A2; against Cytochrome P450 3A4) was “Not Active” in each case. The Ki entry at Cytochrome P450 1A2 and at Cytochrome P450 3A4 was “Not Active” in each case.
